41 compounds from patent publication US20250136612A1, “4',5'-DIHYDROSPIRO[PIPERIDINE-4,7'-THIENO[2,3-C]PYRAN] DERIVATIVES AS INHIBITORS OF APOL1 AND METHODS OF USING SAME” (VERTEX PHARMACEUTICALS INCORPORATED, priority 2022, published 2025) can be followed below.

The test deals with T1, APOL1 (Homo sapiens, UniProt O14791).
T1 sequence (O14791 1-398 S342G/I384M): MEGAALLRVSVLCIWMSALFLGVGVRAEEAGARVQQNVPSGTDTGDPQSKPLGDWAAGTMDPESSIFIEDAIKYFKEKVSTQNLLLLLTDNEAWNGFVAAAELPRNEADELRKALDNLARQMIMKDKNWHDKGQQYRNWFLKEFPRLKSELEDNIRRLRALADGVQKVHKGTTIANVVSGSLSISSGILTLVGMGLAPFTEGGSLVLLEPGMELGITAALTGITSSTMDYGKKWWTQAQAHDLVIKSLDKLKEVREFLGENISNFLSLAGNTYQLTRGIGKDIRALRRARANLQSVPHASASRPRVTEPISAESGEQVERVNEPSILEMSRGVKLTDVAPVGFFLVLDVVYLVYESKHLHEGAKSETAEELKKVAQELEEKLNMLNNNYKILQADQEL
In words: MultiTox-Fluor Multiplex Cytotoxicity Assay in tet-inducible APOL1 T-REx-HEK293 cells. The conditions noted are these: 50 ng/mL tet, 24 hours, ratio of dead to live cells, read-out: IP50 (i.e., IC50 for cell proliferation). It is filed as cell-based. The method, then:
The MultiTox-Fluor Multiplex Cytotoxicity Assay is a single-reagent-addition, homogeneous, fluorescence assay that measures the number of live and dead cells simultaneously in culture wells. The assay measures cell viability and cytotoxicity by detecting two distinct protease activities. The live-cell protease activity is restricted to intact viable cells and is measured using a fluorogenic, cell-permeant peptide glycyl-phenylalanylamino fluorocoumarin (GF-AFC) substrate. The substrate enters intact cells, where it is cleaved to generate a fluorescent signal proportional to the number of living cells. […] A second, cell-impermeant, fluorogenic peptide substrate (bis-AAF-R110 Substrate) is used to measure dead-cell protease that has been released from cells that have lost membrane integrity. A ratio of dead to live cells is used to normalize data.
Briefly, the tet-inducible transgenic APOL1 T-REx-HEK293 cell lines were incubated with 50 ng/mL tet to induce APOL1 in the presence of 3-(2-(4-fluorophenyl)-1H-indol-3-yl)-N-((3S,4R)-4-hydroxy-2-oxopyrrolidin-3-yl)propenamide at 10.03, 3.24, 1.13, 0.356, 0.129, 0.042, 0.129, 0.0045, 0.0015, 0.0005 μM in duplicate for 24 hours in a humidified 37° C. incubator. The MultiTox reagent was added to each well and placed back in the incubator for an additional 30 minutes. The plate was read on the EnVision plate reader. A ratio of dead to live cells was used to normalize, and data was imported, analyzed, and fit using Genedata Screener (Basel, Switzerland) software. Data was normalized using percent of control, no tet (100% viability), and 50 ng/mL tet treated (0% viability),and fit using Smart Fit. The reagents, methods, and complete protocol for the MultiTox assay are described below.
Human embryonic kidney (HEK293) cell lines containing a tet-inducible expression system (T-REx™; Invitrogen, Carlsbad, CA) and Adeno-associated virus site 1 pAAVS1-Puro-APOL1 G0 or pAAVS1-Puro-APOL1 G1 or pAAVS1-Puro-APOL1 G2 Clones G0 DC2.13, G1 DC3.25, and G2 DC4.44 were grown in a T-225 flask at ˜90% confluency in cell growth media (DMEM, 10% Tet-free FBS, 2 mM L-glutamine, 100 Units/mL penicillin-streptomycin, 5 μg/mL blasticidin S HCl, 1 μg/mL puromycin dihydrochloride). Cells were washed with DPBS and then trypsinized to dissociate from the flask. Media was used to quench the trypsin, cells were then pelleted at 200 g and resuspended in fresh cell assay media (DMEM, 2% Tet-free FBS, 2 mM L-glutamine, 100 Units/mL penicillin-streptomycin). Cells were counted and diluted to 1.17×10^6 cells/mL. 20 μL of cells (23,400/well) were dispensed in every well of a 384-well Poly-D-Lysine coated plate using the Multidrop dispenser. The plates were then incubated at room temperature for one hour.
Tetracycline is needed to induce APOL1 expression. 1 mg/mL tet stock in water was diluted to 250 ng/mL (5×) in cell assay media. 60 μL of cell assay media (no tet control) was dispensed in columns 1 and 24, and 60 μL of 5×tet in 384-PP-round bottom plate was dispensed in columns 2 to 23 with the Multidrop dispenser.
Assay ready plates from the Global Compound Archive were ordered using template 384_APOL1Cell_DR10n2_50 uM_v3. Compounds were dispensed at 200 nL in DMSO. The final top concentration was 10 μM with a 10 point 3-fold dilution in duplicate in the MultiTox assay.
20 μL was transferred from the 5×tet plate to the ARP and mixed, then 5 μL of 5×tet and the compounds were transferred to the cell plate and mixed using the Bravo. The cell plate was placed in the humidified 37° C. 5% CO2 incubator for 24 hours.
The MultiTox-Fluor Multiplex Cytotoxicity Assay was performed in accordance with the manufacturer's protocol. After cells were incubated with tet and compound for 24 hours, 25 μL of 1×MultiTox reagent was added to each well using the Multidrop dispenser; the plates were placed on a plate shaker (600 rpm) for 2 minutes, then centrifuged briefly and placed back in the 37° C. incubator for 30 minutes. […]
For `Cn1cc([C@@H]2C[C@]3(CCN2)OCCc2cc(Cl)sc23)nn1` (single isomer, unassigned) [Compound 2], the IC50 lay in the range of 100 to 500 nM.
Under `Cc1cc([C@@H]2C[C@]3(CCN2)OCCc2cc(Cl)sc23)no1` (single isomer, unassigned) [Compound 23] stands 100 to 500 nM; under `Cn1cc([C@@H]2C[C@]3(CCN2)OCCc2cc(Cl)sc23)cn1` (single isomer, unassigned) [Compound 24], less than 100 nM; under `Cc1cc([C@@H]2C[C@]3(CCN2)OCCc2cc(Cl)sc23)on1` (single isomer, unassigned) [Compound 25], 100 to 500 nM.
Turning to `CCc1cc2c(s1)CCOC21CCNC(C2CC2)C1` (single isomer, unassigned) [Compound 29, 2′-cyclopropyl-2-ethyl-spiro[6,7-dihydrothieno[3,2-c]pyran-4,4′-piperidine]], the IC50 fell in the range of 500 to 1000 nM.
In the case of `Cn1cc([C@@H]2C[C@]3(CCN2)OCCc2cc(C4CC4)sc23)nn1` (single isomer, unassigned) [Compound 31], the IC50 is 100 to 500 nM.
Turning to `Cc1cc2c(s1)C1(CCN[C@H](c3cn(C)nn3)C1)OCC2` (single isomer, unassigned) [Compound 32], the IC50 is 100 to 500 nM.
For `Cn1cc([C@@H]2C[C@]3(CCN2)OCC(C)(O)c2cc(Cl)sc23)nn1` (single isomer, unassigned) [Compound 37], the IC50 is 500 to 1000 nM.
In the case of `Cn1cc([C@@H]2C[C@]3(CCN2)OCC(C)(O)c2cc(Cl)sc23)nn1` (single isomer, unassigned) [Compound 38], the IC50 is 100 to 500 nM.
With `Cn1cc([C@@H]2C[C@]3(CCN2)OCC(O)(C(F)F)c2cc(Cl)sc23)nn1` (single isomer, unassigned) [Compound 39], the IC50 fell in the range of 500 to 1000 nM.
As for `Cn1cc([C@@H]2C[C@]3(CCN2)OCC(O)(C(F)F)c2cc(Cl)sc23)nn1` (single isomer, unassigned) [Compound 40], the IC50 is less than 100 nM.
Take `COC1CO[C@]2(CCN[C@H](c3cn(C)nn3)C2)c2sc(Cl)cc21` (single isomer, unassigned) [Compound 42]: the IC50 fell in the range of 500 to 1000 nM.
Take `Cn1cc(C2CC3(CCN2)OCC(O)c2cc(Br)sc23)nn1` (single isomer, unassigned) [Compound 44, 2-bromo-2′-(1-methyltriazol-4-yl)spiro[4,5-dihydrothieno[2,3-c]pyran-7,4′-piperidine]-4-ol]: the IC50 is 500 to 1000 nM.
`Cn1cc(C2CC3(CCN2)OCC(O)c2cc(Br)sc23)nn1` (single isomer, unassigned) [Compound 45, 2-bromo-2′-(1-methyltriazol-4-yl)spiro[4,5-dihydrothieno[2,3-c]pyran-7,4′-piperidine]-4-ol]: the IC50 was less than 100 nM.
For the compound `CC(O)c1c(C(F)(F)F)sc2c1CCOC21CCN[C@H](c2cn(C)nn2)C1` (single isomer, unassigned) [Compound 52], the IC50 was in the range of 100 to 500 nM.
Consider `CC(O)c1c(C(F)(F)F)sc2c1CCOC21CCN[C@H](c2cn(C)nn2)C1` (single isomer, unassigned) [Compound 53], for which the IC50 is less than 100 nM.
The same measure for `CCc1cc2c(s1)CCOC21CCNC(c2ccc(F)cc2)C1` (single isomer, unassigned) [Compound 78, 2-ethyl-2′-(4-fluorophenyl)spiro[6,7-dihydrothieno[3,2-c]pyran-4,4′-piperidine]]: 500 to 1000 nM; for `Cc1ncc(C2CC3(CCN2)OCCc2cc(Cl)sc23)cn1` (centres unmarked) [Compound 1, 2-chloro-2′-(2-methylpyrimidin-5-yl)spiro[4,5-dihydrothieno[2,3-c]pyran-7,4′-piperidine]]: 100 to 500 nM; for `CCc1cc2c(s1)CCOC21CCNC(C2CC2)C1` (centres unmarked) [Compound 3, 2′-cyclopropyl-2-ethyl-spiro[6,7-dihydrothieno[3,2-c]pyran-4,4′-piperidine]]: 100 to 500 nM.
Turning to `CCc1cc2c(s1)C1(CCNC(c3cn(C)nn3)C1)OCC2` (centres unmarked) [Compound 4], the IC50 lay within 100 to 500 nM.
In the case of `Cn1cc(C2CC3(CCN2)OCCc2cc(C(F)(F)F)sc23)nn1` (centres unmarked) [Compound 5], the IC50 was less than 100 nM.
Turning to `CCc1cc2c(s1)C1(CCNC(c3cc(C)no3)C1)OCC2` (centres unmarked) [Compound 6], the IC50 was less than 100 nM.
Turning to `CCc1cc2c(s1)CCOC21CCNC(c2cnn(CCS(C)(=O)=O)c2)C1` (centres unmarked) [Compound 7], the IC50 lay in the range of 100 to 500 nM.
Take `CCc1cc2c(s1)C(C)COC21CCNC(c2cn(C)nn2)C1` (centres unmarked) [Compound 9]: the IC50 was in the range of 100 to 500 nM.
The same measure for `CCc1cc2c(s1)CCOC21CCNC(c2cn(C)nn2)C1` (centres unmarked) [Compound 10]: 100 to 500 nM.
Turning to `Cn1cc(C2CC3(CCN2)OCCc2sc(Cl)cc23)nn1` (centres unmarked) [Compound 11], the IC50 was 500 to 1000 nM.
`Cn1cnc(C2CC3(CCN2)OCCc2cc(Cl)sc23)c1` (centres unmarked) [Compound 12]: the IC50 fell in the range of 500 to 1000 nM.
For `CCc1cc2c(s1)CCOC21CCNC(c2cn[nH]c2)C1` (centres unmarked) [Compound 13], the IC50 fell in the range of 500 to 1000 nM.
Under `OCCn1cc(C2CC3(CCN2)OCCc2cc(Cl)sc23)cn1` (centres unmarked) [Compound 14] stands 500 to 1000 nM; under `CCc1cc2c(s1)CCOC21CCNC(c2ccnnc2)C1` (centres unmarked) [Compound 15], 500 to 1000 nM.
As to `CCc1cc2c(s1)CCOC21CCNC(C2(C)COC2)C1` (centres unmarked) [Compound 16], the IC50 is 500 to 1000 nM.
Consider `Cn1ncc(C2CC3(CCN2)OCCc2cc(Cl)sc23)n1` (centres unmarked) [Compound 17], for which the IC50 lay in the range of 500 to 1000 nM.
Regarding `CCc1cc2c(s1)CCOC21CCNC(c2cnc(C)nc2)C1` (centres unmarked) [Compound 18], the IC50 lay in the range of 500 to 1000 nM.
For `Clc1cc2c(s1)C1(CCNC(C3CC3)C1)OCC2` (centres unmarked) [Compound 19], the IC50 lay in the range of 500 to 1000 nM.
With `Cc1cc2c(s1)CCOC21CCNC(C2CC2)C1` (centres unmarked) [Compound 20], the IC50 lay within 500 to 1000 nM.
Consider `FC(F)(F)c1cc2c(s1)CCOC21CCNC(C2CC2)C1` (centres unmarked) [Compound 21], for which the IC50 fell in the range of 100 to 500 nM.
Under `Cn1cc([C@@H]2C[C@]3(CCN2)OCCc2cc(Br)sc23)nn1` [Compound 22] stands less than 100 nM.
As to `Clc1cc2c(s1)[C@@]1(CCN[C@H](c3cn[nH]c3)C1)OCC2` [Compound 26], the IC50 is less than 100 nM.
The same measure for `CC1CO[C@]2(CCN[C@H](c3cn(C)nn3)C2)c2cc(Cl)sc21` (some centres unmarked) [Compound 28]: 100 to 500 nM.
Turning to `Cn1cc([C@@H]2CC3(CCN2)OCCc2cc(C4CC4)sc23)nn1` (stereo partly drawn) [Compound 30, (2S)-2′-cyclopropyl-2-(1-methyl-1H-1,2,3-triazol-4-yl)-4′,5′-dihydrospiro[piperidine-4,7′-thieno[2,3-c]pyran]], the IC50 fell in the range of 500 to 1000 nM.
For `Cn1cc([C@@H]2C[C@]3(CCN2)OCCc2cc(I)sc23)nn1` [Compound 33, (2S,4S)-2′-iodo-2-(1-methyl-1H-1,2,3-triazol-4-yl)-4′,5′-dihydrospiro[piperidine-4,7′-thieno[2,3-c]pyran]], the IC50 was less than 100 nM.
